Data: ChEMBL document CHEMBL1777782, “Indole 5-carboxamide Thumb Pocket I inhibitors of HCV NS5B polymerase with nanomolar potency in cell-based subgenomic replicons (part 2): central amino acid linker and right-hand-side SAR studies” (Bioorg Med Chem Lett, 2011)
Converted amounts (≈) assume the structure as drawn.

Legend:
[1] = Inhibition of HCV 1b NS5B RNA dependent RNA polymerase by scintillation proximity assay; set-up: species or system Hepacivirus hominis
Hepatitis C virus = assay: Antiviral activity against Hepatitis C virus genotype 1b infected in human Huh-7 cells assessed as inhibition of viral replication after 72 hrs; format: functional, organism-based, Hepacivirus hominis; conditions: Huh-7, 72 h
[2] = Half life in human liver microsomes at 10 uM
[3] = Selectivity ratio for polio virus RNA-dependent RNA polymerase to HCV 1b NS5B RNA dependent RNA polymerase
[4] = Selectivity ratio for mammalian DNA-dependent RNA polymerase II to HCV 1b NS5B RNA dependent RNA polymerase
physchem = conditions: phosphate buffer, pH 7.2
[5] = Permeability across apical to basolateral side in human Caco2 cells; conditions: Caco-2
[6] = Half life in rat liver microsomes at 10 uM; format: ADME, Microsome
[7] = Cmax in overnight-fasted Sprague-Dawley rat at 10, mg/kg, po administered by oral gavage; format: ADME, organism-based; conditions: in vivo

| SMILES | IC50 [1] | EC50 (Hepatitis C virus) | half-life at 10 µM ([2]; liver microsomes) | Ratio [3] | Ratio [4] | solubility thermodynamic at 24 h (physchem) | Papp A→B [5] | half-life at 10 µM ([2]; microsomes) | half-life at 10 µM [6] | Cmax [7] |
| --- | --- | --- | --- | --- | --- | --- | --- | --- | --- | --- |
| Cn1c(-c2ccccn2)c(C2CCCCC2)c2ccc(C(=O)NC(C)(C)C(=O)Nc3ccc(-c4nc(C(N)=O)cs4)cc3)cc21 | 317 nM | 150 nM | 16 min | > 150 | > 150 | < 0.1 µg/mL | – | – | – | – |
| Cn1c(-c2ccccn2)c(C2CCCCC2)c2ccc(C(=O)NC(C)(C)C(=O)Nc3ccc(-c4nc(C(=O)O)cs4)cc3)cc21 | 154 nM | 420 nM | 55 min | > 150 | > 150 | 662 µg/mL (≈ 1060 µM) | < 0.1 ×10⁻⁶ cm/s | – | – | – |
| Cc1c(C(=O)O)sc2ccc(NC(=O)C3(NC(=O)c4ccc5c(C6CCCCC6)c(-c6ccccn6)n(C)c5c4)CCC3)cc12 | 122 nM | 68 nM | 79 min | > 150 | > 150 | 112 µg/mL (≈ 180 µM) | 0.6 ×10⁻⁶ cm/s | – | – | – |
| Cc1c(C(=O)O)sc2ccc(NC(=O)C(C)(C)NC(=O)c3ccc4c(C5CCCCC5)c(-c5ccccn5)n(C)c4c3)cc12 | 35 nM | 46 nM | 34 min | > 150 | > 150 | 202 µg/mL (≈ 332 µM) | 0.8 ×10⁻⁶ cm/s | – | – | – |
| CC(=O)N1CCCC(NC(=O)c2ccc3c(C4CCCCC4)c(-c4ccccn4)n(C)c3c2)(C(=O)Nc2ccc(/C=C/C(=O)O)cc2)C1 (racemic) | 230 nM | 230 nM | 256 min | > 150 | > 150 | 24 µg/mL (≈ 37 µM) | 5.5 ×10⁻⁶ cm/s | – | – | – |
| Cn1c(C(=O)O)cc2cc(NC(=O)[C@]3(NC(=O)c4ccc5c(C6CCCCC6)c(-c6ccccn6)n(C)c5c4)CCCNC3)ccc21 | 44 nM | 245 nM | 28 min | > 150 | > 150 | 14 µg/mL (≈ 22.1 µM) | < 0.1 ×10⁻⁶ cm/s | – | – | – |
| Cc1c(C(=O)O)sc2ccc(NC(=O)[C@]3(NC(=O)c4ccc5c(C6CCCCC6)c(-c6ccccn6)n(C)c5c4)CCCNC3)cc12 | 35 nM | 60 nM | – | – | – | – | – | 93 min | – | – |
| Cc1c(C(N)=O)sc2ccc(NC(=O)C3(NC(=O)c4ccc5c(C6CCCCC6)c(-c6ccccn6)n(C)c5c4)CCC3)cc12 | 86 nM | 76 nM | 71 min | > 150 | > 150 | – | – | – | – | – |
| Cn1c(-c2ccccn2)c(C2CCCCC2)c2ccc(C(=O)NC3(C(=O)Nc4ccc(C(=O)O)cc4)CCC3)cc21 | 93 nM | 110 nM | – | > 150 | > 150 | 336 µg/mL (≈ 610 µM) | 9.7 ×10⁻⁶ cm/s | 21 min | 9 min | 500 nM |
| Cn1c(-c2ccccn2)c(C2CCCCC2)c2ccc(C(=O)N[C@@]3(C(=O)Nc4ccc(-c5cncnc5)cc4)CCNC3)cc21 | 64 nM | 130 nM | 64 min | > 150 | > 150 | 9 µg/mL (≈ 15 µM) | < 0.1 ×10⁻⁶ cm/s | – | – | – |
| Cn1c(-c2ccccn2)c(C2CCCCC2)c2ccc(C(=O)NC3(C(=O)Nc4ccc(/C=C/C(=O)O)cc4)CCNCC3)cc21 | 13 nM | 2000 nM | – | > 150 | > 150 | – | – | – | – | – |
| Cn1c(-c2ccccn2)c(C2CCCCC2)c2ccc(C(=O)NC3(C(=O)Nc4ccc(S(N)(=O)=O)cc4)CCC3)cc21 | 312 nM | 350 nM | 15 min | > 150 | > 150 | < 0.1 µg/mL | – | – | – | – |
| Cn1c(-c2ccccn2)c(C2CCCCC2)c2ccc(C(=O)N[C@]3(C(=O)Nc4ccc(/C=C/C(=O)O)cc4)CCNC3)cc21 | 55 nM | 194 nM | 191 min | > 150 | > 150 | 19 µg/mL (≈ 32.1 µM) | 0.1 ×10⁻⁶ cm/s | – | – | – |
| Cn1c(-c2ccccn2)c(C2CCCCC2)c2ccc(C(=O)N[C@]3(C(=O)Nc4ccc(/C=C/C(=O)O)cc4)CCCNC3)cc21 | 40 nM | 220 nM | – | > 150 | > 150 | – | – | – | – | – |
| Cn1c(-c2ccccn2)c(C2CCCCC2)c2ccc(C(=O)NC3(C(=O)Nc4ccc(-c5cnc(N)nc5)cc4)CCC3)cc21 | 745 nM | 180 nM | – | > 150 | > 150 | 0.9 µg/mL (≈ 1.5 µM) | – | – | – | – |
| Cn1c(-c2ccccn2)c(C2CCCCC2)c2ccc(C(=O)NC(C)(C)C(=O)Nc3ccc(-c4ccc(C(=O)O)o4)cc3)cc21 | 152 nM | 145 nM | 43 min | > 150 | > 150 | > 564 µg/mL | 0.2 ×10⁻⁶ cm/s | – | – | – |
| Cc1c(C(=O)O)sc2ccc(NC(=O)C3(NC(=O)c4ccc5c(C6CCCCC6)c(-c6ccccn6)n(C)c5c4)CCN(C)CC3)cc12 | 27 nM | 58 nM | 185 min | > 150 | > 150 | 1 µg/mL (≈ 1.51 µM) | 0.8 ×10⁻⁶ cm/s | – | – | – |

| SMILES | IC50 [1] | EC50 (Hepatitis C virus) | half-life at 10 µM ([2]; liver microsomes) | Ratio [3] | Ratio [4] | solubility thermodynamic at 24 h (physchem) | Papp A→B [5] | half-life at 10 µM ([2]; microsomes) | half-life at 10 µM [6] | Cmax [7] |
| --- | --- | --- | --- | --- | --- | --- | --- | --- | --- | --- |
| CCN1CC[C@@](NC(=O)c2ccc3c(C4CCCCC4)c(-c4ccccn4)n(C)c3c2)(C(=O)Nc2ccc(/C=C/C(=O)O)cc2)C1 | 23 nM | 50 nM | 61 min | > 150 | > 150 | – | 5.6 ×10⁻⁶ cm/s | – | – | – |
| Cn1c(C(N)=O)cc2cc(NC(=O)C(C)(C)NC(=O)c3ccc4c(C5CCCCC5)c(-c5ccccn5)n(C)c4c3)ccc21 | 165 nM | 97 nM | 21 min | > 150 | > 150 | < 0.1 µg/mL | – | – | – | – |
| Cn1c(-c2ccccn2)c(C2CCCCC2)c2ccc(C(=O)N[C@@]3(C(=O)Nc4ccc(/C=C/C(=O)O)cc4)CCCNC3)cc21 | 11 nM | 20 nM | 84 min | > 150 | > 150 | 22 µg/mL (≈ 36.3 µM) | 0.6 ×10⁻⁶ cm/s | – | 17 min | < 100 nM |
| CN1CCC(NC(=O)c2ccc3c(C4CCCCC4)c(-c4ccccn4)n(C)c3c2)(C(=O)Nc2ccc3sc(C(=O)O)cc3c2)CC1 | 17 nM | 220 nM | – | > 150 | > 150 | – | – | – | – | – |
| Cn1c(C(=O)O)cc2cc(NC(=O)C(C)(C)NC(=O)c3ccc4c(C5CCCCC5)c(-c5ccccn5)n(C)c4c3)ccc21 | 75 nM | 143 nM | 36 min | > 150 | > 150 | 945 µg/mL (≈ 1600 µM) | 0.7 ×10⁻⁶ cm/s | – | – | – |
| Cn1c(-c2ccccn2)c(C2CCCCC2)c2ccc(C(=O)NC(C)(C)C(=O)Nc3ccc(NC(=O)C(N)=O)cc3)cc21 | 124 nM | 139 nM | 25 min | > 150 | > 150 | 1 µg/mL (≈ 1.72 µM) | 12.9 ×10⁻⁶ cm/s | – | – | – |
| CC(C)(NC(=O)c1ccc2c(c1)nc(-c1ccoc1)n2C1CCCCC1)C(=O)Nc1ccc(/C=C/C(=O)O)cc1 | 40 nM | – | – | – | – | – | – | – | – | – |
| CC(=O)N1CC[C@@](NC(=O)c2ccc3c(C4CCCCC4)c(-c4ccccn4)n(C)c3c2)(C(=O)Nc2ccc(/C=C/C(=O)O)cc2)C1 | 24 nM | 212 nM | – | > 150 | > 150 | – | – | – | – | – |
| Cn1c(-c2ccccn2)c(C2CCCCC2)c2ccc(C(=O)NC3(C(=O)Nc4ccc(/C=C/C(=O)O)cc4)CCCCC3)cc21 | 194 nM | 129 nM | 61 min | > 150 | > 150 | 5 µg/mL (≈ 8.27 µM) | – | – | – | – |
| Cn1c(-c2ccccn2)c(C2CCCCC2)c2ccc(C(=O)N[C@@]3(C(=O)Nc4ccc(/C=C/C(=O)O)cc4)CCNC3)cc21 | 23 nM | 83 nM | > 300 min | > 150 | > 150 | 10 µg/mL (≈ 16.9 µM) | 0.5 ×10⁻⁶ cm/s | – | – | – |
| CN1CCCC(NC(=O)c2ccc3c(C4CCCCC4)c(-c4ccccn4)n(C)c3c2)(C(=O)Nc2ccc(/C=C/C(=O)O)cc2)C1 (racemic) | 43 nM | 66 nM | – | > 150 | > 150 | – | – | – | – | – |
| CN1CC[C@](NC(=O)c2ccc3c(C4CCCCC4)c(-c4ccccn4)n(C)c3c2)(C(=O)Nc2ccc(/C=C/C(=O)O)cc2)C1 | 66 nM | 78 nM | – | > 150 | > 150 | 20 µg/mL (≈ 33 µM) | 7.8 ×10⁻⁶ cm/s | 46 min | – | – |
| Cn1c(-c2ccccn2)c(C2CCCCC2)c2ccc(C(=O)NC(C)(C)C(=O)Nc3ccc4sc(C(=O)O)cc4c3)cc21 | 23 nM | 88 nM | 49 min | > 150 | > 150 | 468 µg/mL (≈ 787 µM) | 0.4 ×10⁻⁶ cm/s | – | – | – |
| Cn1c(-c2ccccn2)c(C2CCCCC2)c2ccc(C(=O)NC(C)(C)C(=O)Nc3ccc(NC(=O)C(=O)O)cc3)cc21 | 34 nM | 2500 nM | – | > 150 | > 150 | – | – | – | – | – |
| Cn1c(-c2ccccn2)c(C2CCCCC2)c2ccc(C(=O)NC(C)(C)C(=O)Nc3ccc(-c4ccc(C(N)=O)o4)cc3)cc21 | 330 nM | 96 nM | 19 min | > 150 | > 150 | < 0.1 µg/mL | – | – | – | – |
| Cn1c(-c2ccccn2)c(C2CCCCC2)c2ccc(C(=O)NC3(C(=O)Nc4ccc(/C=C/C(=O)O)cc4)CCOCC3)cc21 | 68 nM | 170 nM | 41 min | > 150 | > 150 | 15 µg/mL (≈ 24.7 µM) | 5.7 ×10⁻⁶ cm/s | – | – | – |
| CN1CCC(NC(=O)c2ccc3c(C4CCCCC4)c(-c4ccccn4)n(C)c3c2)(C(=O)Nc2ccc(/C=C/C(=O)O)cc2)CC1 | 10 nM | 60 nM | 148 min | > 150 | > 150 | 22 µg/mL (≈ 35.5 µM) | 0.6 ×10⁻⁶ cm/s | – | 34 min | < 100 nM |
